Source: patent US20240199618A1, “NOVEL N-ACYL-[3-SUBSTITUTED]-[8-SUBSTITUTED]-5,6-DIHYDRO-[1,2,4]TRIAZOLO[4,3-a]PYRAZINES AS SELECTIVE NK-3 RECEPTOR ANTAGONISTS, PHARMACEUTICAL COMPOSITION, METHODS FOR USE IN NK-3 RECEPTOR-MEDIATED DISORDERS” (Ogeda SA, priority 2013, published 2024)
Where two headings read alike, the source gives them in different places.

Tests used:
human NK-3 receptor [1] = biological target: T1, human NK-3 receptor (Homo sapiens (Human), UniProt P29371); test: Aequorin functional assay with human NK-3 receptor (antagonist testing vs NKA); assay type: cell-based; conditions: CHO cells, NKA at EC80 (3 nM); read-out: Functional assay: Aequorin assay with human NK-3 receptor hNK-3-AEQ (antagonist IC50)
Protocol: Aequorin Assay with Human NK-3 Receptor
Changes in intracellular calcium levels are a recognized indicator of G protein-coupled receptor activity. The efficacy of compounds of the invention to inhibit NKA-mediated NK-3 receptor activation was assessed by an in vitro Aequorin functional assay. Chinese Hamster Ovary recombinant cells expressing the human NK-3 receptor and a construct that encodes the photoprotein apoaequorin were used for this assay. In the presence of the cofactor coelenterazine, apoaequorin emits a measurable luminescence that is proportional to the amount of intracellular (cytoplasmic) free calcium.
The antagonist activity of compounds of the invention is measured following pre-incubation (3 minutes) of the compound (at various concentrations) with the cells, followed by addition of the reference agonist (NKA) at a final concentration equivalent to the EC80 (3 nM) and recording of emitted light (FDSS 6000 Hamamatsu) over the subsequent 90-second period. The intensity of the emitted light is integrated using the reader software. Compound antagonist activity is measured based on the concentration-dependent inhibition of the luminescence response to the addition of Neurokinin A.

human NK-3 receptor [2] = biological target: T1, human NK-3 receptor; test: 3H-SB222200 binding competition assay with human NK-3 receptor
Protocol: The affinity of compounds of the invention for the human NK-3 receptor was determined by measuring the ability of compounds of the invention to competitively and reversibly displace a well-characterized NK-3 radioligand in a concentration-dependent manner.
^3H-SB222200 Binding Competition Assay with Human NK-3 Receptor
Membranes were prepared from Chinese hamster ovary recombinant cells stably expressing the human NK-3 receptor. The membranes were incubated with 5 nM ^3H-SB222200 (ARC) in a HEPES 25 mM/NaCl 0.1M/CaCl2 1 mM/MgCl2 5 mM/BSA 0.5%/Saponin 10 μg/ml buffer at pH 7.4 and various concentrations of compounds of the invention. The amount of ^3H-SB222200 bound to the receptor was determined after filtration by the quantification of membrane associated radioactivity using the TopCount-NXT reader (Packard).

human NK-1 receptor = human NK-1 receptor (Homo sapiens (Human), UniProt P25103); test: Selectivity assay: [3H] substance P binding, human NK-1 receptor; conditions: 2 nM [3H] substance P, CHO membranes; read-out: hNK-1 (Ki)
Protocol: Selectivity of the compounds of the invention was determined over the other human NK receptors, namely NK-1 and NK-2 receptors.
The affinity of compounds of the invention for the NK-1 receptor was evaluated in CHO recombinant cells which express the human NK-1 receptor. Membrane suspensions were prepared from these cells. The following radioligand: [^3H] substance P (PerkinElmer Cat #NET111520) was used in this assay. Binding assays were performed in a 50 mM Tris/5 mM MnCl2/150 mM NaCl/0.1% BSA at pH 7.4. Binding assays consisted of 25 μl of membrane suspension (approximately 5 μg of protein/well in a 96 well plate), 50 μl of compound or reference ligand (Substance P) at increasing concentrations (diluted in assay buffer) and 2 nM [^3H] substance P. The plate was incubated 60 min at 25° C. in a water bath and then filtered over GF/C filters (Perkin Elmer, 6005174, presoaked in 0.5% PEI for 2 h at room temperature) with a Filtration unit (Perkin Elmer). The radioactivity retained on the filters was measured by using the TopCount-NXT reader (Packard).

human NK-2 receptor = human NK-2 receptor (Homo sapiens (Human), UniProt P21452); test: Selectivity assay: [125I]-Neurokinin A binding, human NK-2 receptor; conditions: 0.1 nM [125I]-Neurokinin A, CHO membranes; read-out: hNK-2 (Ki)
Protocol: The affinity of compounds of the invention for the NK-2 receptor was evaluated in CHO recombinant cells which express the human NK-2 receptor. Membrane suspensions were prepared from these cells. […] Binding assays were performed in a 25 mM HEPES/1 mM CaCl2)/5 mM MgCl2/0.5% BSA/10 μg/ml saponin, at pH 7.4. […] The radioactivity retained on the filters was measured by using the TopCount-NXT reader (Packard).

plasma protein = test: Determination of plasma protein binding (equilibrium dialysis, RED); assay type: in vitro ADME; conditions: 4 hours at 37° C.
From the text: Determination of plasma protein binding The pharmacokinetic and pharmacodynamic properties of chemicals/drugs are largely a function of the reversible binding of chemicals to plasma or serum proteins. […] Consequently, the extent of the plasma protein binding (PPB) of a compound influences its action as well as its distribution and elimination.
The determination of plasma protein binding (PPB) of a compound is enabled by equilibrium dialysis, an accepted and standard method for reliable estimation of the non-bound drug fraction in plasma. RED (Rapid Equilibrium Dialysis) device insert is made of two side-by-side chambers separated by an O-ring-sealed vertical cylinder of dialysis membrane (MWCO ˜8,000). […] After 4 hours incubation at 37° C. under shaking, an aliquot is removed from each chamber and analyzed by a LC-MS/MS procedure enables the determination of both free and bound drug.
The “free fraction” may be calculated as 100%−% rPPB (i.e. the complementary percentage of that disclosed in Table 4, corresponding to the drug concentration that is unbound and therefore available to engage biological target and elicit pharmacological activity).

[3] = system: circulating levels of luteinizing hormone (LH); test: Castrated male rat model, circulating luteinizing hormone (LH); assay type: in vivo; conditions: single oral dose less than or equal to 30 mg/kg, p<0.05
Protocol: Castrated Male Rat Model to Assess the Effect of Compound of Invention on Circulating Levels of Luteinizing Hormone (LH)
The effect of compounds of the invention to inhibit luteinizing hormone (LH) secretion is determined by the following biological studies.
In humans and rodents, castration is well-precedented to permit heightened, persistent GnRH signaling and consequent elevation of circulating LH. Thus, a castrated rat model is used to provide a broad index for measurement of LH inhibition as a marker of test compound inhibition of the GnRH signaling pathway.
Castrated adult male Sprague-Dawley (SD) rats (150-175 g,) were purchased from Janvier (St Berthevin, France). All animals were housed 2 per cage in a temperature-controlled room (22±2° C.) and 50±5% relative humidity with a 12 hour/12 hour light/dark cycles (lights off at […]). The animals were allowed 3 weeks of postoperative recovery prior to study. Animals were handled on a daily basis. Standard diet and tap water were provided ad libitum. Animal cage litters were changed once a week. On the study day, animals were acclimated to the procedure room for a period of one hour prior to the initiation of the experiment.
Compounds of the invention were formulated in 0.5% methyl cellulose.
After basal sampling (TO) a single dose of compounds of the invention or vehicle was administrated orally to rats. Blood samples were then collected at several time points post dosing (45, 90, 150, 300 and 420 minutes). Blood samples were obtained via tail vein bleed, drawn into EDTA-containing tubes and centrifuged immediately. Plasma samples were collected and stored in a −80° C. freezer until assayed. Serum LH levels were determined using radioimmunoassay kit from RIAZEN—Rat L H, Zentech (Liege, Belgium). Baseline was defined as the initial basal blood sample.

[4] = Table 2, 5 nM 3H-SB222200, CHO membranes, read-out: Competitive binding assay with human NK-3 receptor hNK-3 (Ki)
[5] = Table 3 (selectivity table), read-out: hNK-3 (Ki)

T1 sequence (P29371 whole entry): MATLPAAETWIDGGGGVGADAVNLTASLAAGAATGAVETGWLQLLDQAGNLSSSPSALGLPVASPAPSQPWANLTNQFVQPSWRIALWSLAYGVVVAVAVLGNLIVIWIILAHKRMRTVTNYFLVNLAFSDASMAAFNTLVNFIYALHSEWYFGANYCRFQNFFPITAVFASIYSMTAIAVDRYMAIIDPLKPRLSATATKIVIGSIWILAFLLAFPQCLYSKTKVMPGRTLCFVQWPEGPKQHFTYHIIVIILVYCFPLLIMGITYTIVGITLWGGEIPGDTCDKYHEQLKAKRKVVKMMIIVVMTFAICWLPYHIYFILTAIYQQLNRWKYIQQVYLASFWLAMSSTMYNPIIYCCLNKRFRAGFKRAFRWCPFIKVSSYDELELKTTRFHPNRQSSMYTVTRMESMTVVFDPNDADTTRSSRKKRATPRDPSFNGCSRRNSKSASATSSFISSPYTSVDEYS
human NK-1 receptor, sequence (P25103 whole entry): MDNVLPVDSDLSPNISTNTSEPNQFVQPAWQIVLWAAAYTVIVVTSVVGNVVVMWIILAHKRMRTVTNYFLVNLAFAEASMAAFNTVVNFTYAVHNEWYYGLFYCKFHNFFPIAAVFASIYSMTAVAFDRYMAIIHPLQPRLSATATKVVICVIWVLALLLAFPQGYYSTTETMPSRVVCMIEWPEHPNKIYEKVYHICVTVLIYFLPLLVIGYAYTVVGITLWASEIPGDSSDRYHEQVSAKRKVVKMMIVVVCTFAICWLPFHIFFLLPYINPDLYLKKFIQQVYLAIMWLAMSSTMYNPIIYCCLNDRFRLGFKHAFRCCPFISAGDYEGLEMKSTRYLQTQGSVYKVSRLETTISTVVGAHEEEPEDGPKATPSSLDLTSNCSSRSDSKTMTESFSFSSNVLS
human NK-2 receptor, sequence (P21452 whole entry): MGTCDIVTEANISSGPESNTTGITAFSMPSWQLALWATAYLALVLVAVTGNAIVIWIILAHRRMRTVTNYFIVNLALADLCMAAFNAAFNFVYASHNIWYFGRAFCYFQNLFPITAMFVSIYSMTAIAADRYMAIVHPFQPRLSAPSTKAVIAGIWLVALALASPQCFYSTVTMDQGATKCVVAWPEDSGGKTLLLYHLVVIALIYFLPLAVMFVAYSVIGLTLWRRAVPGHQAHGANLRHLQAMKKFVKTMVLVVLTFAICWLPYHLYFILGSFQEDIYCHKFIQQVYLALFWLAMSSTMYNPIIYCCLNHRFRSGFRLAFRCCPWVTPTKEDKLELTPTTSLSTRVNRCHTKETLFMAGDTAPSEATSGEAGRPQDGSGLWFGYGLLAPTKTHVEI

Structure (SMILES)	IC50 (human NK-3 receptor [1]) [nM]	Ki (human NK-3 receptor [2]; [4]) [nM]	Ki (human NK-3 receptor [2]; [5]) [nM]	Ki (human NK-1 receptor) [nM]	Ki (human NK-2 receptor) [nM]	Exposure (% rPPB), bound drug fraction to plasma protein (plasma protein) [%]	circulating LH levels [3]
Cc1noc(-c2nnc3n2CCN(C(=O)c2ccc(F)cc2)[C@@H]3C)n1 [Compound 28, (R)-(4-fluorophenyl)(8-methyl-3-(3-methyl-1,2,4-oxadiazol-5-yl)-5,6-dihydro-[1,2,4]triazolo[4,3-a]pyrazin-7(8H)-yl)methanone]	160	110	110	> 30000	> 30000	12	
Cc1nsc(-c2nnc3n2CCN(C(=O)c2ccc(C#N)cc2)[C@@H]3C)n1 [Compound 29, (R)-4-(8-methyl-3-(3-methyl-1,2,4-thiadiazol-5-yl)-5,6,7,8-tetrahydro-[1,2,4]triazolo[4,3-a]pyrazine-7-carbonyl)benzonitrile]	170	150	150	> 30000	> 30000	10	
C[C@@H]1c2nnc(-c3nc(C(C)(F)F)no3)n2CCN1C(=O)c1ccc(F)cc1 [Compound 43, (R)-(3-(3-(1,1-difluoroethyl)-1,2,4-oxadiazol-5-yl)-8-methyl-5,6-dihydro-[1,2,4]triazolo[4,3-a]pyrazin-7(8H)-yl)(4-fluorophenyl)methanone]	136	59	59	> 30000	> 30000	47	
C[C@@H]1c2nnc(-c3nc(CC(F)(F)F)no3)n2CCN1C(=O)c1ccc(F)cc1 [Compound 44, (R)-(4-fluorophenyl)(8-methyl-3-(3-(2,2,2-trifluoroethyl)-1,2,4-oxadiazol-5-yl)-5,6-dihydro-[1,2,4]triazolo[4,3-a]pyrazin-7(8H)-yl)methanone]	204	45	45	> 30000	> 30000	31	
CC(F)c1noc(-c2nnc3n2CCN(C(=O)c2ccc(F)cc2)[C@@H]3C)n1 (stereo partly drawn) [Compound 45, ((8R)-3-(3-(1-fluoroethyl)-1,2,4-oxadiazol-5-yl)-8-methyl-5,6-dihydro-[1,2,4]triazolo[4,3-a]pyrazin-7(8H)-yl)(4-fluorophenyl)methanone]	244	101	101	> 30000	> 30000	31	

These reach a lower IC50 (human NK-3 receptor [1]). Values come first.

IC50 (human NK-3 receptor [1]) [nM]	Ki (human NK-3 receptor [2]; [4]) [nM]	Ki (human NK-3 receptor [2]; [5]) [nM]	Ki (human NK-1 receptor) [nM]	Ki (human NK-2 receptor) [nM]	Exposure (% rPPB), bound drug fraction to plasma protein (plasma protein) [%]	Structure (SMILES)	circulating LH levels [3]
16	11	11	10300	7500	67	Cc1nsc(-c2nnc3n2CCN(C(=O)c2ccc(Cl)c(Cl)c2)[C@@H]3C)n1 [Compound 1, (R)-(3,4-dichlorophenyl)(8-methyl-3-(3-methyl-1,2,4-thiadiazol-5-yl)-5,6-dihydro-[1,2,4]triazolo[4,3-a]pyrazin-7(8H)-yl)methanone]	significantly suppressed
12	15	15	23800	> 30000	47	CCc1nsc(-c2nnc3n2CCN(C(=O)c2ccc(F)cc2)[C@@H]3C)n1 [Compound 2, (R)-(3-(3-ethyl-1,2,4-thiadiazol-5-yl)-8-methyl-5,6-dihydro-[1,2,4]triazolo[4,3-a]pyrazin-7(8H)-yl)(4-fluorophenyl)methanone]	significantly suppressed
93	60	60	> 30000	> 30000		Cc1nsc(-c2nnc3n2CCN(C(=O)c2ccccc2)[C@@H]3C)n1 [Compound 20, (R)-(8-methyl-3-(3-methyl-1,2,4-thiadiazol-5-yl)-5,6-dihydro-[1,2,4]triazolo[4,3-a]pyrazin-7(8H)-yl)(phenyl)methanone]	significantly suppressed
74	88	88	> 30000	> 30000	19	Cc1nsc(-c2nnc3n2CCN(C(=O)c2ccccc2C)[C@@H]3C)n1 [Compound 26, (R)-(8-methyl-3-(3-methyl-1,2,4-thiadiazol-5-yl)-5,6-dihydro-[1,2,4]triazolo[4,3-a]pyrazin-7(8H)-yl)(o-tolyl)methanone]	
5	7	7	40000		94	CCc1noc(-c2nnc3n2CCN(C(=O)c2ccc(-c4cccs4)cc2)[C@@H]3C)n1 [Compound 30, (R)-(3-(3-ethyl-1,2,4-oxadiazol-5-yl)-8-methyl-5,6-dihydro-[1,2,4]triazolo[4,3-a]pyrazin-7(8H)-yl)(4-(thiophen-2-yl)phenyl)methanone]	significantly suppressed
39	48	48	> 30000	> 30000	16	C[C@@H]1c2nnc(-c3nc(C(F)F)ns3)n2CCN1C(=O)c1ccc(F)cc1 [Compound 42, (R)-(3-(3-(difluoromethyl)-1,2,4-thiadiazol-5-yl)-8-methyl-5,6-dihydro-[1,2,4]triazolo[4,3-a]pyrazin-7(8H)-yl)(4-fluorophenyl)methanone]	
